Measurements: patent US6559125B1, “Polyamide-alkylator conjugates and related products and method” (priority 2000, dated 2003)

Experiments:
[1] = tested on: 3′ and 5′ 32P labeled 241 base pair restriction fragments containing the HIV-1 promoter; experiment: Thermal cleavage assay (heat-induced single-strand DNA cleavage); assay type: biochemical
Description: Storage phosphor autodiograms of 8% denaturing polyacrylamide gels used to separate the fragments generated by heat induced DNA cleavage at alkylation sites. All reactions contained 10,000 cpm restriction fragment, 10 mM Tris.HCl (pH 7.0), 10 mM KCl, 10 mM MgCl and 5 mM CaCl and were performed at 37° C. Following 24 hour of equilibration, the DNA pellet was resuspended in sodium citrate buffer (pH=7.2) and heated to 90° C. for 15 min to thermally cleave at sites of adenine- or guanine-N3 lesions. (a) 5′-^32P-end-labeled restriction fragment (SEQ ID NO:5). (b) 3′-^32P-end-labeled restriction fragment. (a-b) Lane 1, intact DNA; lane 2, A-specific reaction; lane 3, G-specific reaction; lanes 5-13, […], respectively. (b) Lane 14, 10 μM CHL-Dp (5). Center, alkylation sites on the DNA fragment, indicate by arrows. Sites 5′-TCGTCGACGA-3′ (SEQ ID NO:20) (A), 5′-ACGTCGA-3′ (B), and 5′-ACGTCGA-3′ (E) are match sites and 5′-ACATCTT-3′ (C) and 5′-TCGTCAG-3′ (D) are double base pair mismatches (mismatches indicated by gray boxes).
Storage phosphor autodiogram of 8% denaturing polyacrylamide gels used to separate the fragments generated by heat induced DNA cleavage at alkylation sites. All reactions contained 10,000 cpm restriction fragment, 10 mM Tris.HCl (pH 7.0), 10 mM KCl, 10 mM MgCl2 and 5 mM CaCl2 and were performed at 37° C. Following of equilibrations of 10 minutes-24 hours, the DNA pellet was resuspended in sodium citrate buffer (pH=7.2) and heated to 90° C. for 15 min to thermally cleave at sites of adenine- or guanine-N3 lesions. Lane 1, intact DNA; lane 2, A-specific reaction; lane 3, G-specific reaction; lanes 4-11, 500 pM ImPy-β-ImPy-(R)^CHLγ-ImPy-β-ImPy-β-Dp (2), equilibrations for 10 min, 20 min, 30 min, 1 h, 2 h, 4 h, 12 h, 24 h, respectively. Right. models bound to match sites on the DNA fragment (SEQ ID NO:15). The polyamide is colored as in FIG. 7. The solid arrows indicate cleavage bands from cleavage sites of adenine- or guanine-N3 lesions on the restriction fragment.
All reactions were executed in a total volume of 40 μl. A polyamide stock solution or H2O was added to an assay buffer containing radiolabeled restriction fragment (10,000 cpm), affording final solution conditions of 10 mM Tris.HCl, 10 mM KCl, 10 mM MgCl2, 5 mM CaCl2, pH 7.0, and either 1 pM-10 nM nitrogen mustard-polyamide conjugate or no conjugate (for reference lanes). The solutions were equilibrated at 37° C. for the desired time period. The reactions were stopped by the addition of 60 μl of a solution containing 0.6 M NaOAc, 12.5 mM EDTA, 0.15 mM (bp) calf thymus DNA, 2.0 M NaCl, 0.8 mg/ml glycogen, and ethanol precipitated. Reactions were resuspended in 40 μl […] sodium citrate buffer, pH 7.2, and heated for […] The reactions were ethanol precipitated and resuspended in 1×TBE/80% formamide loading buffer, denatured by heating at 85° C. for 10 minutes, and placed on ice. The reaction products were separated by electrophoresis on an 8% polyacrylamide gel (5% cross-link, 7 M urea) in 1×TBE at 2000 V. Gels were dried and exposed to a storage phosphor screen (Molecular Dynamics) [Johnston, R. F., Pickett, S. C. & Barker, D. L. (1990). Autoradiography using storage phosphor technology. Electrophoresis 11, 355-360].

[2] = tested on: 5′-end labeled and 3′-end labeled 277 base pair restriction fragment; experiment: Thermally induced strand cleavage by seco-CBI conjugates; assay type: biochemical; details: for concentration range of alkylation by CBI control compounds: FIG. 17, 1 μM and 10 μM, 12 H, 37° C.
Description: Storage phosphor autoradiograms of 8% denaturing polyacrylamide gels used to separate the fragments generated by heat induced DNA cleavage at alkylation sites. All lanes contain 10 kcpm of either 5′ or 3′ radiolabeled DNA. Each reaction was equilibrated in TE, pH 7.5 at 37° C. for 12 H. The unbound polyamide was removed by precipitation, and then strand cleavage was induced by heating at 95° C. for 30 min. (a) 5′-^32P-end labeled restriction fragment (SEQ ID NO:18). (b) 3′-^32P-end labeled restriction fragment. (a-b) lanes 1 and 14, intact DNA; lanes 2-11, 15-24, 1 pM, 2 pM, 5 pM, 10 pM, 20 pM, 50 pM, 100 pM, 200 pM, 500 pM, 1 nM respectively of the corresponding polyamide; lanes 12 and 25, A-specific reaction; lanes 13 and 26, G-specific reaction. (a-b) Ball-and-stick models of polyamides bound to match and mismatch sites on the DNA fragment. Match sites 5′-TGGTCA-3′ and 5′-AGGACT-3′ and single base pair mismatch site 5′-AGGAGT-3′ are indicated in bold on the sequence, with arrows indicating cleavage bands. The polyamide is colored as in FIG. 10, with the bold triangle representing (R)-CBI.
Storage phosphor autoradiograms of 8% denaturing polyacrylamide gels used to separate the fragments generated by heat induced DNA cleavage at alkylation sites. All lanes contain 10 kcpm of either 5′ or 3′ radiolabeled DNA. Each reaction was equilibrated in TE, pH 7.5 at 37° C. from 0 to 10 hours. The unbound polyamide was removed by precipitation, and then strand cleavage was induced by heating at 95° C. for 30 min. (a) 5′-^32P-end labeled restriction fragment (SEQ ID NO: 18). (b) 3′-^32P-end labeled restriction fragment. (a-b) lanes 1 and 11, intact DNA; lanes 2-8, 1 nM of corresponding polyamide, equilibrations for 0, 15 minutes, 30 minutes, 1 hour, 2 hours, 5 hours, and 10 hours, respectively; lanes 9 and 19, A-specific reaction; lanes 10 and 20, G-specific reaction. (a-b) Ball-and-stick models of polyamides bound to match and mismatch sites on the DNA fragment. Match sites 5′-TGGTCA-3′ and 5′-AGGACT-3′ and single base pair mismatch site 5′-AGGAGT-3′ are indicated in bold on the sequence, with arrows indicating cleavage bands. The polyamide is colored as in FIG. 10, with the bold triangle representing (R)-CBI.
Storage phosphor autoradiograms of 8% denaturing polyacrylamide gels used to separate the fragments generated by heat induced DNA cleavage at alkylation sites. All lanes contain 10 kcpm of either 5′ or 3′ radiolabeled DNA. Each reaction was equilibrated in TE, pH 7.5 at 37° C. for 12 H. The unbound polyamide or agent was removed by precipitation, and then strand cleavage was induced by heating at 95° C. for 30 min. (a) 5′-^32P-end labeled restriction fragment. (b) 3′-^32P-end labeled restriction fragment. (a-b) Lane 1, intact DNA; lane 2, 1R, 1 nM; lane 3 1S, 1 nM; lanes 4-5, 2R, 1 μM and 10 μM, respectively; lanes 6-7, 2S, 1 μM and 10 μM, respectively; lane 8, A-specific reaction; lane 9, G-specific reaction.
All reactions were carried out in a volume of 50 μl. A polyamide or seco-CBI-dimethyl gaba stock solution or water (for reference lane) was added to an assay buffer of TE (pH7.5) and […] of 3′- or 5′-radiolabeled DNA. The solutions were allowed to equilibrate for 12 hours or the appropriate time (for time course reactions) at 37° C. The reactions were stopped with 60 μl of a solution containing NaOAc (600 mM), EDTA pH 8.0 (12.5 mM), calf thymus DNA (150 μM base pair), glycogen (0.8 mg mL^−1), and NaCl (2 M). Ethanol was added to remove unbound polyamide and precipitate the products. The reactions were resuspended in 20 μl of TE (pH 7.5) and cleavage was initiated by heating at 95° C. for 30 minutes. The cleavage products were precipitated with 150 μl ethanol and then resuspended in 100 mM trisborate-EDTA/80% formamide loading buffer, and denatured and loaded onto polyacrylamide gels as previously reported. The gels were quantitated by the use of storage phosphor technology. […]

With “ImPy-β-ImPy-(R)^CHLγ-ImPy-β-ImPy-β-Dp [conjugate 2]” the “concentration at which minor cleavage was observed proximal to double base pair mismatch sites” value [1] was “greater than 1 nM”, the “specificity for reaction at match sites over mismatch sites” value [1] was “approximately 20 fold” and the “earliest time at which cleavage was detectable” value ([1]; 0.5 nM, pH 7.0, 37° C.) was 10 min. For the same compound, the “final cleavage yield on the bottom strand” value ([1]; 0.5 nM, pH 7.0, 37° C., 24 hours) was 45%, the “time at which alkylation was half completed at match sites” value ([1]; 0.5 nM, pH 7.0, 37° C., monitored for 24 hours) was 2.2 h and the “cleavage on one strand (bottom strand)” value ([1]; 10 nM concentration, 37° C.) was “quantitative cleavage”. For the same compound, the “alkylation at subnanomolar concentrations” value ([1]; subnanomolar concentrations) was “high yield”.

With “ImImPyPy-(R)^(S)-CBIγ-ImPyPyPy-β-Dp [conjugate 1S]” the site of alkylation [2] was “alkylates adjacent to a match site”.

In the case of “(R)-Seco-CBI-β-alanine-(dimethyl)-β-aminobutyric acid [2R]”, the “concentration range of alkylation by CBI control compounds” value [2] is reported as “alkylate only at micromolar concentrations”.

With “(S)-Seco-CBI-β-alanine-(dimethyl)-γ-aminobutyric acid [2S]” the “concentration range of alkylation by CBI control compounds” value [2] was “alkylate only at micromolar concentrations”.

In the case of “ImImPyPy-(R)^(R)-CBIγ-ImPyPyPy-β-Dp [conjugate 1R]”, the “alkylation efficiency and rate compared with the other enantiomer conjugate” value [2] is reported as “higher alkylation efficiency and faster rates of alkylation than 1S”, the “alkylation on the 5′-labeled strand” value [2] is reported as “no alkylation” and the site of alkylation [2] is reported as “alkylation at the site which includes a match site for the polyamide”.

In the case of `CN(C)CCCNC(=O)CCCc1ccc(N(CCCl)CCCl)cc1` [compound 4, 4-{4-[bis (2-chloroethyl)amino]phenyl}-N-[3-(dimethylamino)propyl]butanamide], the “cleavage by freely diffusing alkylator” value ([1]; 10 μM concentration) is reported as “no cleavage”.
